Assay [1] deals with T1, CCR9 (Homo sapiens (Human), UniProt P51686). Put plainly: FLIPR calcium flux assay using hCCR9 over expressed cells (Chem1-hCCR9), TECK stimulation. The assay is classed as cell-based. The note with it: Chem1-hCCR9 overexpressing cells. The procedure: Biological Activity: FLIPR Assay Using hCCR9 Over Expressed Cells
A calcium flux assay was used to determine the ability of the compounds to interfere with the binding between CCR9 and its chemokine ligand (TECK) in Chem1-hCCR9 overexpressing cells. hCCR9 overexpressing cells were seeded (25,000 cells/well) into black Poly-D-Lysine coated clear bottom 96-well plates (BD Biosciences, Cat #356640) and incubated overnight at 37° C./5% CO2 in a humidified incubator. Media was aspirated and cells washed twice with 100 μL assay buffer (1×HBSS, 20 mM HEPES) containing 2.5 mM Probenecid. A 0.3× Fluo-4 NW calcium dye was prepared in assay buffer containing 5 mM Probenecid and stored in the dark. Each well was loaded with 100 μL of 0.3× Fluo-4 NW calcium dye and incubated at 37° C./5% CO2 for 60 minutes and then at room temperature for 30 minutes. A half-log serially diluted concentration response curve was prepared at a 3× final assay concentration for each compound (10 μM-0.1 nM final assay concentration) and 50 μL of the compound then transferred to the cells (150 μL final volume) for 60 minutes prior to stimulation (30 minutes at 37° C./5% CO2 and 30 minutes at room temperature). TECK was diluted to 4× its EC80 in assay buffer (containing 0.1% [w/v] bovine serum albumin [BSA]) and 50 μL dispensed through the fluorometric imaging plate reader (FLIPR) instrument to stimulate the cells (200 μL final volume). The increase in intracellular calcium levels was measured with the FLIPR instrument. The potency of the compound as a CCR9 antagonist was calculated as an IC50 using GraphPad Prism software (variable slope four parameter). The Ki of the compound was determined from the IC50 values using the following equation. IC50/1+(Agonist (TECK) conc. used in assay/EC50 of agonist (TECK) generated on day of experiment) Ki calculation: […]

Assay [2] addresses T1, CCR9. Put plainly: FLIPR calcium flux assay using MOLT4 cells, TECK stimulation. The assay is classed as cell-based. The note with it: MOLT4 cells (human T-cell line). An outline of the steps:
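MOLT4 cells in HBSS/20 mM HEPES with probenecid, Fluo-4 NW loaded, preincubated with compound (10 μM-0.1 nM final, half-log) for 60 min before TECK stimulation. Calcium rise read on FLIPR; IC50 from four-parameter fit, converted to Ki using TECK concentration and same-day TECK EC50.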
(Calcium flux is commonly read through the fluorescence of an indicator in the cells.)

Molecules are shown by their SMILES. pKi: −log10 of the molar value.

T1 sequence (P51686 whole entry): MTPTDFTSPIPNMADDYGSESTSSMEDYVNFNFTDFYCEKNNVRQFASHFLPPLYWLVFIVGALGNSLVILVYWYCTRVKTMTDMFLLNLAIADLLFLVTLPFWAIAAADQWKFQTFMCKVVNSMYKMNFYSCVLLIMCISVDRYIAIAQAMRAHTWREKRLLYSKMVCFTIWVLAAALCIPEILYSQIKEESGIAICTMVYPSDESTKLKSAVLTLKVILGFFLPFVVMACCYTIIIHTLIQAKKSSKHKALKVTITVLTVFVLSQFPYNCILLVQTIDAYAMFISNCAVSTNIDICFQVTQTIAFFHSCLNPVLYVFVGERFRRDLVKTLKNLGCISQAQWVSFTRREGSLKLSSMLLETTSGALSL

By pKi is commonly meant −log10 of the Ki, conventionally taken in molar units. `Cc1ccc(CN2C(=O)c3c(Cl)ccc(NS(=O)(=O)c4ccc(C(C)(C)C)cc4)c3C2=O)nc1` [Compound 251]: the pKi at CCR9 [1] is 6.83; at CCR9 [2], 7.29.
The corresponding values for `Cc1ccncc1CN1C(=O)c2c(Cl)ccc(NS(=O)(=O)c3ccc(C(C)(C)C)cc3)c2C1=O` [Compound 208] are 7.80 and 7.62.
The corresponding values for `Cc1cc(N2C(=O)c3c(Cl)ccc(NS(=O)(=O)c4ccc(C(C)(C)C)cc4)c3C2=O)cn(C)c1=O` [Compound 285] are 7.11 and 7.80.
Taken in the same sequence, the figures for `CCc1c(OC)c[n+]([O-])cc1N1C(=O)c2c(Cl)ccc(NS(=O)(=O)c3ccc(C(C)(C)C)cc3)c2C1=O` [Compound 266] were 7.60 and 8.00.
Take `COc1ccc(N2C(=O)c3c(Cl)ccc(NS(=O)(=O)c4ccc(C(C)(C)C)cc4)c3C2=O)nc1C` [Compound 260]: the figures for the pKi at CCR9 [1] and on CCR9 [2] were 7.66 and 7.80, respectively.
Regarding `COc1ccncc1N1C(=O)c2c(Cl)ccc(NS(=O)(=O)c3ccc(C(C)(C)C)cc3)c2C1=O` [Compound 119], the pKi is 7.46 at CCR9 [1] and 8.70 on CCR9 [2].
Taken in the same sequence, the figures for `COc1ccc(CN2C(=O)c3c(Cl)ccc(NS(=O)(=O)c4ccc(C(C)(C)C)cc4)c3C2=O)cn1` [Compound 235] were 7.03 and 6.91.
The corresponding values for `O=C1c2c(Cl)ccc(NS(=O)(=O)c3ccc(C(F)(F)F)cc3)c2C(=O)N1c1cn[nH]c1` [Compound 149] are 6.40 and 7.28.
Taken in the same sequence, the figures for `CC(C)(C)c1ccc(S(=O)(=O)Nc2ccc(Cl)c3c2C(=O)N(Cc2cccnc2)C3=O)cc1` [Compound 64, 4-(tert-butyl)-N-(7-chloro-1,3-dioxo-2-(pyridin-3-ylmethyl)isoindolin-4-yl)benzenesulfonamide] were 7.57 and 7.66.
As for `Cc1nccnc1N1C(=O)c2c(Cl)ccc(NS(=O)(=O)c3ccc(C(C)(C)C)cc3)c2C1=O` [Compound 270], the negative-log Ki (pKi) at CCR9 [1] is 7.21; at CCR9 [2], 7.64.
The corresponding values for `CCOc1ccncc1N1C(=O)c2c(Cl)ccc(NS(=O)(=O)c3ccc(C(C)(C)C)cc3)c2C1=O` [Compound 271] are 7.46 and 8.05.
The corresponding values for `Cc1ccncc1N1C(=O)c2c(Cl)ccc(NS(=O)(=O)c3ccc(C(C)(C)C)cc3)c2C1=O` [Compound 185] are 7.64 and 8.15.
The corresponding values for `COc1ncccc1CN1C(=O)c2c(Cl)ccc(NS(=O)(=O)c3ccc(C(C)(C)C)cc3)c2C1=O` [Compound 247] are 7.29 and 7.11.
As for `Cn1nnc(N2C(=O)c3c(Cl)ccc(NS(=O)(=O)c4ccc(C(C)(C)C)cc4)c3C2=O)n1` [Compound 234], the pKi is 7.37 on CCR9 [1] and 7.35 on CCR9 [2].
The corresponding values for `Cc1cnc(C#N)c(N2C(=O)c3c(Cl)ccc(NS(=O)(=O)c4ccc(C(C)(C)C)cc4)c3C2=O)c1` [Compound 256] are 7.74 and 7.74.
Taken in the same sequence, the figures for `COc1ccc[n+]([O-])c1N1C(=O)c2c(Cl)ccc(NS(=O)(=O)c3ccc(C(C)(C)C)cc3)c2C1=O` [Compound 211] were 7.21 and 7.48.
Taken in the same sequence, the figures for `Cc1ccc(N2C(=O)c3c(Cl)ccc(NS(=O)(=O)c4ccc(C(C)(C)C)cc4)c3C2=O)cn1` [Compound 182] were 7.24 and 7.72.
For `Cc1ccc(NS(=O)(=O)c2ccc(C(C)(C)C)cc2)c2c1C(=O)N(Cc1cccnc1)C2=O` [Compound 160], the pKi at CCR9 [1] is 6.11; on CCR9 [2], 6.34.
In the case of `COC(=O)c1cc(N2C(=O)c3c(Cl)ccc(NS(=O)(=O)c4ccc(C(C)(C)C)cc4)c3C2=O)nn1C` [Compound 292], the pKi at CCR9 [1] was 7.80; at CCR9 [2], 7.96.
Taken in the same sequence, the figures for `Cn1cnc(N2C(=O)c3c(Cl)ccc(NS(=O)(=O)c4ccc(C(C)(C)C)cc4)c3C2=O)n1` [Compound 255] were 7.14 and 7.77.
Taken in the same sequence, the figures for `COc1cncc(N2C(=O)c3c(Cl)ccc(NS(=O)(=O)c4ccc(C(C)(C)C)cc4)c3C2=O)c1` [Compound 90, 4-(tert-butyl)-N-(7-chloro-2-(5-methoxypyridin-3-yl)-1,3-dioxoisoindolin-4-yl)benzenesulfonamide] were 6.76 and 7.66.
Taken in the same sequence, the figures for `COc1ncc(C)cc1N1C(=O)c2c(Cl)ccc(NS(=O)(=O)c3ccc(C(C)(C)C)cc3)c2C1=O` [Compound 261] were 7.96 and 7.80.
With `Cn1cnc(N2C(=O)c3c(Cl)ccc(NS(=O)(=O)c4ccc(C(C)(C)C)cc4)c3C2=O)c1` [Compound 153, 4-(tert-butyl)-N-(7-chloro-2-(1-methyl-1H-imidazol-4-yl)-1,3-dioxoisoindolin-4-yl)benzenesulfonamide], the pKi was 7.37 on CCR9 [1] and 8.15 on CCR9 [2].
Taken in the same sequence, the figures for `CC(C)(C)c1ccc(S(=O)(=O)Nc2ccc(Cl)c3c2C(=O)N(c2cccc(C#N)n2)C3=O)cc1` [Compound 207] were 7.44 and 7.52.
The corresponding values for `COc1cccnc1N1C(=O)c2c(Cl)ccc(NS(=O)(=O)c3ccc(C(C)(C)C)cc3)c2C1=O` [Compound 202] are 7.31 and 7.66.
Taken in the same sequence, the figures for `COc1nccc(C)c1N1C(=O)c2c(Cl)ccc(NS(=O)(=O)c3ccc(C(C)(C)C)cc3)c2C1=O` [Compound 237] were 8.05 and 7.55.
`COc1c(N2C(=O)c3c(Cl)ccc(NS(=O)(=O)c4ccc(C(C)(C)C)cc4)c3C2=O)ccc[n+]1[O-]` [Compound 194]: the pKi on CCR9 [1] is 8.22; on CCR9 [2], 8.40.
Taken in the same sequence, the figures for `CC(C)(C)c1ccc(S(=O)(=O)Nc2ccc(Cl)c3c2C(=O)N(c2ccc[n+]([O-])c2)C3=O)cc1` [Compound 44, 3-(4-(4-(tert-butyl)phenylsulfonamido)-7-chloro-1,3-dioxoisoindolin-2-yl)pyridine 1-oxide] were 6.75 and 7.80.
The corresponding values for `Cn1ccc(N2C(=O)c3c(Cl)ccc(NS(=O)(=O)c4ccc(C(C)(C)C)cc4)c3C2=O)n1` [Compound 145] are 7.14 and 6.89.
Taken in the same sequence, the figures for `COc1cccc(N2C(=O)c3c(Cl)ccc(NS(=O)(=O)c4ccc(C(C)(C)C)cc4)c3C2=O)c1` [Compound 138] were 6.86 and 7.08.
In the case of `O=C1c2c(Cl)ccc(NS(=O)(=O)c3ccc(C(F)(F)F)cc3)c2C(=O)N1c1cccnc1` [Compound 47], the pKi on CCR9 [1] was 6.51; on CCR9 [2], 7.47.
The corresponding values for `Cc1cc(N2C(=O)c3c(Cl)ccc(NS(=O)(=O)c4ccc(C(C)(C)C)cc4)c3C2=O)c[n+]([O-])c1` [Compound 214] are 7.28 and 7.70.
The corresponding values for `CC(C)(C)c1ccc(S(=O)(=O)Nc2ccc(Cl)c3c2C(=O)N(c2ncccn2)C3=O)cc1` [Compound 250] are 7.25 and 7.64.
Taken in the same sequence, the figures for `CC(C)(C)c1ccc(S(=O)(=O)Nc2ccc(Cl)c3c2C(=O)N(Cc2ncccc2F)C3=O)cc1` [Compound 239] were 7.64 and 7.89.
Regarding `CC(C)(C)c1ccc(S(=O)(=O)Nc2ccc(Cl)c3c2C(=O)N(c2ccc(F)cn2)C3=O)cc1` [Compound 219], the values for the pKi at CCR9 [1] and at CCR9 [2] were 7.52 and 8.00, respectively.
The corresponding values for `Cc1ccc(N2C(=O)c3c(Cl)ccc(NS(=O)(=O)c4ccc(C(C)(C)C)cc4)c3C2=O)[n+]([O-])c1` [Compound 229] are 7.20 and 7.34.
For the molecule `Cc1cccc(CN2C(=O)c3c(Cl)ccc(NS(=O)(=O)c4ccc(C(C)(C)C)cc4)c3C2=O)n1` [Compound 254], the pKi was 7.17 on CCR9 [1] and 7.24 at CCR9 [2].
With `CCOC(=O)c1ncccc1N1C(=O)c2c(Cl)ccc(NS(=O)(=O)c3ccc(C(C)(C)C)cc3)c2C1=O` [Compound 286, ethyl 3-(4-((4-(tert-butyl)phenyl)sulfonamido)-7-chloro-1,3-dioxoisoindolin-2-yl)picolinate], the pKi on CCR9 [1] is 7.85; at CCR9 [2], 8.00.
Take `Cn1cncc1N1C(=O)c2c(Cl)ccc(NS(=O)(=O)c3ccc(C(C)(C)C)cc3)c2C1=O` [Compound 192]: the pKi on CCR9 [1] was 7.92; on CCR9 [2], 8.40.
Take `CCOC(=O)c1c(N2C(=O)c3c(Cl)ccc(NS(=O)(=O)c4ccc(C(C)(C)C)cc4)c3C2=O)ccc[n+]1[O-]` [Compound 290]: the pKi on CCR9 [1] is 7.85; at CCR9 [2], 8.15.

These data come from US9969687B2, “Compounds useful as CCR9 modulators” (Norgine B.V., priority 2013, dated 2018).
